According to article PMC12736008, “New Dimethylpyridine-3-Carboxamide Derivatives as MMP-13 Inhibitors with Anticancer Activity” (Molecules, 2025):

Biological target: T1, MMP-8 (Homo sapiens, UniProt P22894)
T1 construct: purchased Abcam ab139453
Test: MMP-8 inhibitory screening assay kit (fluorometric)
Format: biochemical
Details: single-point screening; same concentrations, 1.8 to 4.6 µM
Procedure: The inhibitory activity of the designed compounds against MMP-13 was evaluated using a commercial fluorometric MMP-13 inhibitor assay kit (Abcam, Cambridge, UK), following the manufacturer’s protocol. Solutions of the tested compounds were prepared at concentrations ranging from 1.8 to 4.6 µM. N-isobutyl-N-(4-methoxyphenylsulfonyl)glycyl hydroxamic acid (NNGH), a broad-spectrum inhibitor of matrix metalloproteinases, was used as positive control. […] In parallel, MMP-8 inhibition assays were also conducted using the same concentrations of compounds 3b, 3c, 3d, and 3g.
It should be emphasized that these assays were performed as single-point screening experiments, optimized for rapid qualitative assessment rather than full kinetic characterization. Consequently, the observed differences in activity between MMP-13 and MMP-8 are indicative trends supporting the selectivity predicted by computational studies, including docking, molecular dynamics simulations, and binding free energy calculations, rather than providing definitive quantitative evidence.
The inhibitory activity of the tested compounds was evaluated using the MMP-13 inhibitor screening assay kit (fluorometric) (Abcam, ab139451). The assay performed according to the manufacturer’s instructions. The designed compounds were tested at concentrations ranging from 1.8 to 4.6 µM, to determine their inhibitory activity. […]

T1 sequence (P22894 101-467): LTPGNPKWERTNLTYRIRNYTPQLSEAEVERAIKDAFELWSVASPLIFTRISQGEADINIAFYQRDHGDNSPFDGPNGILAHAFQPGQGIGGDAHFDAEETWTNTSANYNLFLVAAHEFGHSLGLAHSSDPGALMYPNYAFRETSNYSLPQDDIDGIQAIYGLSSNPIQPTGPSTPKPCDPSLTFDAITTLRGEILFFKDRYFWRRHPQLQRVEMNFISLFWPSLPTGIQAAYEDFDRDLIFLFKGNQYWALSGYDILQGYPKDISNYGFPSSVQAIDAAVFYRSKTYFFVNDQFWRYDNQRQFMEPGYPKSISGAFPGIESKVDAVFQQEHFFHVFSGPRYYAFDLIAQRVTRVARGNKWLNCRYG

`Cc1cc(C)c(C(=O)NCC(=O)NCc2ccccc2)c(S)n1` [Compound 3g, 4,6-dimethyl-N-[2-(benzylamino)-2-oxoethyl]-2-sulfanylpyridine-3-carboxamide] was tested, and the MMP-8 activity inhibition was “slight inhibitory activity”.
